Like-named read-outs stand apart in the source and are kept apart here.
Assays:
[1] = Summary score for characterization of 38 core set hits; conditions: for D = Triple resistant: 2-point score, multiplex resistance (cadmium, MMS, H2O2); for S = Sum of Negative scores: human; for C = H2O2- & Cd-resistant: score, resistance to both H2O2 and cadmium
Method in brief: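 First, H2O2-resistance screen hits were characterized for longevity-related phenotypes, and each major one (multiplex resistance, FOXO3/NRF2 activation, mTOR down-regulation) received 2 points. Next, C. elegans lifespan extension was scored 0 to 2 from 4 to 6 trials. Finally, human-cell genotoxicity or toxicity subtracted a point.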

[2] = tested on: WI-38 cells; conditions: for No H2O2 stress treatment, at 10 uM (fold change): normalized ATP measurement; for Assay 1: H2O2-resistant: YES/NO, if NO, possibly due to repeated freezing/thawing of stocks
[3] = tested on: WI-38 cells; assay: Propidium iodide (PI) cell-death imaging upon H2O2 stress; assay type: cell-based, human; conditions: for Assay 7: H2O2-resistant, at 10 uM, validated by propidium iodide (PI) cell-death imaging: w/H2O2, 3 hrs/4 hrs/5 hrs, YES/NO; for cytotoxicity at 10 µM: Homo sapiens, WI-38
[4] = target: T1, human PARP1 (Homo sapiens, UniProt P09874); assay: PARP inhibitor assay (HT Fluorescent Homogeneous PARP Inhibition Assay Kit); assay type: biochemical; conditions: for L = PARP inhibition: score
T1 construct: purchased Trevigen
Method in brief: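 Compounds (10 μM final) incubated 30 min, room temperature, dark, with human PARP1, nicotinamide adenine dinucleotide and activated DNA. Fluorescent signal generated by 1 hr cycling with diaphorase and resazurin, then reaction stopped.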

[5] = tested on: NRF2; assay: in vitro; assay type: cell-based, human; conditions: for NRF2-dependency for H2O2-resistance, at 10 uM - with H2O2, 2nd experiment: experiment 2 (2nd); for NRF2-dependency for H2O2-resistance, 2nd experiment / NRF2-dependency for H2O2-resistance, 1st experiment: with H2O2, NRF2 knockdown in WI-38 cells; for Assay 17: NRF2-dependency for H2O2-resistance: YES/NO; for NRF2-dependency of H2O2-resistance (NRF2 siRNA knockdown): at least 2 of 3 independent experiments; for NRF2-dependency for H2O2-resistance, at 10 uM - with H2O2, 1st experiment: experiment 1 (1st); for viability of non-stressed cells, reduced by: human, 24 h
[6] = tested on: LC3A/B puncta; assay: Autophagy induction analysis (LC3A/B puncta immuno-staining); assay type: cell-based, human
Method in brief: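 Read-out is LC3A/B puncta intensity per DAPI-positive nucleus, either total puncta (Exp. 1) or puncta colocalizing with LAMP2 lysosomes (Exp. 2). Cells were WI-38, exposed to compounds for 24 hrs before antibody staining overnight at 4° C and automated imaging.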

[7] = WI-38 cells, 10 μM, (*) = compromised ability to protect cells from H2O2, could be due to stability issue
[8] = asterisks indicate the loss of the ability to protect cells from H2O2 over time
[9] = derived from dose response curves, 0.6-20 uM, H2O2-resistance of WI-38 cells
[10] = read-out: Est. ED50, dose response 0.6-20 μM, H2O2-resistance
[11] = H2O2 3 hrs, 10 uM, n = 6, negative control 5.44% ± 0.79%, read-out: Percentage of propidium iodide-positive dead cells (under H2O2 stress treatment), 3 hrs
[12] = pre-treatment at 10 uM, 3.5 hours of H2O2, DMSO control 27.4% ± 6.5%, */**/*** = reduced by one/two/three standard deviations, read-out: Percentage of propidium iodide-positive dead cells (under H2O2 stress treatment), at 10 uM
[13] = 10 uM, YES = resistance reduced by at least 50%, partial = 25% to 50%
[14] = H2O2 4 hrs, 10 uM, n = 6, negative control 16.81% ± 1.42%, read-out: Percentage of propidium iodide-positive dead cells (under H2O2 stress treatment), 4 hrs
[15] = H2O2 5 hrs, 10 uM, n = 6, negative control 22.50% ± 1.53%, read-out: Percentage of propidium iodide-positive dead cells (under H2O2 stress treatment), 5 hrs

T1 sequence (P09874 whole entry): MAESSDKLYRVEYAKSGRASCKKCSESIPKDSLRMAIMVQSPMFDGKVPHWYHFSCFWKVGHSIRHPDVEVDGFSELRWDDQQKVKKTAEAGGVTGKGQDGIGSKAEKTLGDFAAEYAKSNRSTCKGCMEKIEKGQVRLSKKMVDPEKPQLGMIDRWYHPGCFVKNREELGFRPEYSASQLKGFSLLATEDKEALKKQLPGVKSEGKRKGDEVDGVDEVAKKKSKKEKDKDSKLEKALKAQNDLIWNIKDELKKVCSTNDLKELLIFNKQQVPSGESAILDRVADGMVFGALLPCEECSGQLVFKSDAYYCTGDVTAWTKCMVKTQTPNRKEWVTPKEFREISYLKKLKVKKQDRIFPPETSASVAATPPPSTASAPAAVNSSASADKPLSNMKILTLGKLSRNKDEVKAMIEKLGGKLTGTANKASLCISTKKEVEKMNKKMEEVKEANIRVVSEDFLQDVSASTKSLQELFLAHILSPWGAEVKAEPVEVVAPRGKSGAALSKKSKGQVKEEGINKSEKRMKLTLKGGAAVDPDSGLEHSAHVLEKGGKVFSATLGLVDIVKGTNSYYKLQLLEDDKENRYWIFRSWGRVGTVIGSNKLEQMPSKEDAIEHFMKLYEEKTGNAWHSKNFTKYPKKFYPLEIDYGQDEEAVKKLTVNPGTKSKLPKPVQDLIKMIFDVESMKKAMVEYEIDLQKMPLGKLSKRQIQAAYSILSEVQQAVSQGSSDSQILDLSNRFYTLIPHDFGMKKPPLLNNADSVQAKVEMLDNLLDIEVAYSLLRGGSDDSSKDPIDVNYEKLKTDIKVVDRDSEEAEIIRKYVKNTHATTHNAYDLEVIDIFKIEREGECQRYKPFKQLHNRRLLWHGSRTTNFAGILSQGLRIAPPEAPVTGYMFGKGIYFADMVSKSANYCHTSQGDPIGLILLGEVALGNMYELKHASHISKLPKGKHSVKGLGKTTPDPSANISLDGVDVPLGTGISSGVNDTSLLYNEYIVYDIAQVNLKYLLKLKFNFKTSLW

| Structure (SMILES) | D = Triple resistant [1] | S = Sum of Negative scores [1] | C = H2O2- & Cd-resistant [1] | H2O2-resistant [2, 7] | No H2O2 stress treatment, at 10 uM (fold change) ([2]; WI-38 cells) | Assay 1: H2O2-resistant [2] | H2O2-resistant [2, 8] | EC50 [2, 9] [µM] | EC50 [2, 10] [µM] | Assay 7: H2O2-resistant, at 10 uM, validated by propidium iodide (PI) cell-death imaging ([3]; 10 uM) | cytotoxicity at 10 µM [3, 11] [%] | cytotoxicity at 10 µM [3, 12] [%] | L = PARP inhibition [4] | J = NRF2-dependency for H2O2-resistance ([5]; score) | J = NRF2-dependency for H2O2-resistance ([5]; summary score) | H = Potential Autophagy Induction ([6]; score) | H = Potential Autophagy Induction ([6]; summary score) | NRF2-dependency for H2O2-resistance, at 10 uM - with H2O2, 2nd experiment ([5]; 10 uM) | NRF2-dependency for H2O2-resistance, 2nd experiment [5, 13] | Assay 17: NRF2-dependency for H2O2-resistance ([5]; 10 uM) | also measured |
| --- | --- | --- | --- | --- | --- | --- | --- | --- | --- | --- | --- | --- | --- | --- | --- | --- | --- | --- | --- | --- | --- |
| Cc1cc(N)n(-c2ccccc2C(=O)O)n1 [Gr-6A] | 2 | 0 | 1 | YES | 1.10 fold change | YES | YES | 13.8 | 40.5 | YES | 4.38 | 15.6 | 1 | 0 | 0 | 0 | 0 | – | – | – | Inhibition of PARP1 ([4]; 10 μM, in vitro): inhibitors of PARP1 |
| O=C(/C=C/c1cn(-c2ccccc2)nc1-c1cccnc1)c1ccccc1 [Gr-6B] | 0 | 0 | 1 | YES | 1.10 fold change | YES | YES | – | 45.1 | YES | 2.62 | 2.1 | 0 | 1 | 1 | 0 | 0 | 2nd, partial. | partial. | YES | NRF2-dependency for H2O2-resistance, at 10 uM (experiment 3) - with & without H2O2 ([5]; 10 uM, experiment 3, with & without H2O2): YES; NRF2-dependency for H2O2-resistance (experiment 3) ([5]; 10 uM, with & without H2O2, NRF2 knockdown in WI-38 cells, YES = resistance reduced by at least 50%, partial = 25% to 50%): YES; NRF2-dependency of H2O2-resistance (NRF2 siRNA knockdown) [5]: significantly attenuate |
| N=C1S/C(=C\c2cn(-c3ccccc3)nc2-c2cccs2)C(=O)N1c1nccs1 [Gr-6C] | 0 | 2 | 0 | YES (*) | .096 fold change | – | YES (*) | 16.2 | 48.5 | YES | 1.17 | 7.9 | 0 | 0 | 0 | 0 | 0 | 2nd, partial. | partial. | – | cytotoxicity at 10 µM [3, 14]: 1.39%; cytotoxicity at 10 µM [3, 15]: 6.12% |
| O=C(NCc1cccnc1)/C(=C\c1cccc(Oc2ccccc2)c1)S(=O)(=O)c1ccccc1 [Gr-7A] | 0 | 1 | 0 | YES (*) | 0.78 fold change | YES | YES (*) | 16.1 | 58.4 | YES | 2.78 | 9.9 | 0 | 1 | 1 | 0 | 0 | 2nd, YES. | YES. | YES | cytotoxicity at 10 µM [3, 14]: 2.32%; cytotoxicity at 10 µM [3, 15]: 3.52%; Survival of NRF2 siRNA-transfected cells in the absence of H2O2 [5]: could reduce the survival; NRF2-dependency for H2O2-resistance, at 10 uM - with H2O2, 1st experiment ([5]; 10 uM): 1st, YES;; NRF2-dependency for H2O2-resistance, 1st experiment [5, 13]: YES;; NRF2-dependency of H2O2-resistance (NRF2 siRNA knockdown) [5]: significantly attenuate; viability of non-stressed cells, reduced by ([5]; 10 uM): by 84%) |
| O=C(NCc1cccnc1)/C(=C\c1ccc(Br)cc1)S(=O)(=O)c1ccccc1 [Gr-7B] | 0 | 1 | 0 | YES (*) | 0.56 fold change | YES | YES (*) | – | 24.7 | YES | 5.88 | 4.7 | 0 | 1 | 1 | 0 | 0 | 2nd, partial. | partial. | YES | cytotoxicity at 10 µM [3, 14]: 6.44%; NRF2-dependency for H2O2-resistance, at 10 uM - with H2O2, 1st experiment ([5]; 10 uM): 1st, partial;; NRF2-dependency for H2O2-resistance, 1st experiment [5, 13]: partial;; NRF2-dependency of H2O2-resistance (NRF2 siRNA knockdown) [5]: significantly attenuate |
| O=C(NCc1cccnc1)/C(=C/c1ccc(-c2ccc(Cl)cc2)o1)S(=O)(=O)c1ccccc1 [Gr-7C] | 0 | 1 | 0 | YES | 0.87 fold change | YES | YES | 14.2 | 2.59 | YES | 0.82 | 12.5 | 0 | 1 | 1 | 0 | 0 | – | – | YES | cytotoxicity at 10 µM [3, 14]: 2.36%; cytotoxicity at 10 µM [3, 15]: 3.73%; Survival of NRF2 siRNA-transfected cells in the absence of H2O2 [5]: could reduce the survival; NRF2-dependency for H2O2-resistance, at 10 uM - with H2O2, 1st experiment ([5]; 10 uM): 1st, YES;; NRF2-dependency for H2O2-resistance, 1st experiment [5, 13]: YES;; NRF2-dependency of H2O2-resistance (NRF2 siRNA knockdown) [5]: significantly attenuate; viability of non-stressed cells, reduced by ([5]; 10 uM): by 60%) |
